Experimental data as given in US20220257552A1, “METHODS OF PRESCREENING AND TREATING BREAST CANCERS WITH SELECTIVE ANDROGEN RECEPTOR MODULATORS” (priority 2021, published 2022).

How the values were obtained:
HCI-9 PDX = assay: HCI-9 patient-derived xenograft in NSG mice; format: in vivo; details: Formula IX 10 mpk, enzalutamide 30 mpk p.o.
Experimental: All animal protocols were approved by The University of Tennessee Health Science Center (UTHSC) Institutional Animal Care and Use Research Committee. Xenograft experiments were performed as previously published (Narayanan et al. (2014) PLoS One 9, e103202). Briefly, 3 million MCF-7 cells were suspended in 0.05 ml MEM+10% FBS and 0.05 ml Matrigel/nude mouse and were injected subcutaneously. Once the tumor size reached 100-200 mm^3, the animals were randomized and treated orally with the indicated drugs formulated in DMSO:PEG-300 (15:85). HCI-7, HCI-9, and HCI-13 PDXs were gifts kindly donated by Dr. Alana Welm (Huntsman Cancer Institute, Salt Lake City, Utah). HCI PDX tumor fragments (1 mm^3) were surgically implanted under the mammary fat pad in female NOD SCID Gamma (NSG) mice. Tumor volume was measured twice weekly for MCF-7 xenograft and once or twice weekly for HCI PDXs. At the end of the study, animals were sacrificed and tumors were excised, weighed, and stored for various analyses.
To determine if the same effect is observed in an AR-positive, but ER-negative breast cancer, HCI-9 tumor fragments were implanted under the mammary fat pad of NSG mice.

MCF7 palboR cells = assay: Proliferation of palbociclib resistant MCF-7 cells; format: cell-based; details: Formula IX 100 nM, Palb 125 nM
Excerpt: Data were presented as mean values±s.e.m. […] Data represented the mean±s.e.m. of four replicate cell culture wells per condition. […] P values are indicated by gray asterisks, where ****P<0.0001 for all highlighted comparisons.
Tissue samples from an ER-positive, PR-negative, and HER2-negative (ER^+, PR^−, HER2^−) patient that progressed on (i.e., was resistant to) palbociclib were implanted into animal (NSG mice) models and grown as a patient-derived xenograft (PDX). […] This human tumor model also had amplification of the cyclin D1 (CCND1^Amp) gene which has been implicated as a driver of therapeutic resistance to CDKi. […] This is also observed in other models tested in vitro including a palbociclib resistant MCF-7 (MCF7 palbo^R) line (FIG. 44B).

HCI-13 tumors = assay: Phospho-proteomics of HCI-13 PDX tumors; parameters: species or system mice; details: mouse, in vivo
Experimental: Whole tissue lysates were directly prepared from the tissue sections using a 1:1 mixture of T-PER (Tissue Protein Extraction Reagent; Pierce, Rockford, Ill.) and 2× Tris-Glycine SDS Sample Buffer (Invitrogen, Carlsbad, Calif.) supplemented with 5% 2-mercaptoethanol. Samples were boiled for 8 minutes and stored at −80° C. until arrayed.
Samples and standard curves for internal quality assurance were printed onto nitrocellulose-coated slides (Grace Bio-labs, Bend, Oreg.) using an Aushon 2470 arrayer (Aushon BioSystems, Billerica, Mass.). Selected arrays were used to estimate the amount of protein in each sample using a Sypro Ruby Protein Blot Stain (Molecular Probes, Eugene, Oreg.) protocol following manufacturer's instructions (Pin et al. (2014) Curr Protoc Prtein Sci 75, Unit 27 27). Remaining arrays were tested with a single primary antibody using an automated system (Dako Cytomation, Carpinteria, Calif.) as previously described (Baldelli et al. (2015) Oncotarget 6, 32368-32379). Arrays were first incubated with Reblot Antibody stripping solution (Chemicon, Temecula, Calif.), followed by two washes in PBS, and I-block solution (Tropix, Bedford, Mass.) for 4 hours. Arrays were probed with a total of 174 antibodies targeting a wide range of protein kinases and their activation via phosphorylation. Antibodies specificity was tested using standard immunoblotting on a panel of cell lysates. […]
The commercially available Signal Amplification System (CSA; Dako Cytomation) and a streptavidin-conjugated IRDye 680 secondary antibody (LI-COR Biosciences, Lincoln, Nebr.) were used as signal detection methods. Images were acquired on the laser-based PowerScanner (TECAN, Mönnedorf, Switzerland), and data were analyzed using the MicroVigene software Version 5.1 (Vigene Tech, Carlisle, Mass.) as previously described (Baldelli et al. (2015) Oncotarget 6, 32368-32379). […]

ER-α = target: T1, ER-α (Rattus norvegicus, UniProt P06211); assay: ER-α transactivation in HEK-293 cells; format: cell-based
T1 construct: expressed in transfected cells
Experimental: Rat GR, MR, PR, ER-α and ER-β were individually cloned into a pCR3.1 vector backbone. Sequencing was performed to verify the absence of any mutations. HEK-293 cells were plated at 90,000 cells per well of a 24 well plate in Dulbecco's Minimal Essential Media supplemented with 5% charcoal-stripped FBS. […] Luciferase assays were performed 48 h after transfection. Transcriptional activation values are represented as firefly luciferase normalized to renilla luciferase.

T1 sequence (P06211 whole entry): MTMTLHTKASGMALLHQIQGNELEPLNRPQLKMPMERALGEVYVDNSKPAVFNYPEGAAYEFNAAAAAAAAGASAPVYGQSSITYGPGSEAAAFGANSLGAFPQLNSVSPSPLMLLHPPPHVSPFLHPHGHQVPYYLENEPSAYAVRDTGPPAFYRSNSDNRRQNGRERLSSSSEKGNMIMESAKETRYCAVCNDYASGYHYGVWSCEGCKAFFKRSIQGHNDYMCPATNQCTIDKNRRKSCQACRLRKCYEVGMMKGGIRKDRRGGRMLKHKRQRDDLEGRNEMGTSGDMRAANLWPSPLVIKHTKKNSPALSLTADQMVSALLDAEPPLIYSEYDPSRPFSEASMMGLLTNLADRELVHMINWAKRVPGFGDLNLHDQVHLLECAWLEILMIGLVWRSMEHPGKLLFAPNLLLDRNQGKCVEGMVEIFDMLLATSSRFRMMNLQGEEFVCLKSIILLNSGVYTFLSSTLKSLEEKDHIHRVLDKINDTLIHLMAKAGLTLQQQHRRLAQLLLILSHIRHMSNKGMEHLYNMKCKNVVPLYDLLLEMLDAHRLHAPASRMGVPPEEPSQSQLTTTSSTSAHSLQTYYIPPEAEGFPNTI

Structure (SMILES)	tumor growth trajectory (HCI-9 PDX)	anti-proliferative activity (MCF7 palboR cells)	expression of proliferation marker Ki67 (HCI-13 tumors)	phosphorylation of oncogenic proteins (pERK, PKC z, RSK3, Ezrin, BCL2, ELF4G, ER) (HCI-13 tumors)	phosphorylation of tumor suppressor proteins (p53, p27, ACC, AR) (HCI-13 tumors)	17β-estradiol-induced ER-α activity, antagonist mode (ER-α; co-incubation)	ERα-mediated transactivation, agonist mode (ER-α; highest tested concentration 1 μM)
C[C@](O)(COc1ccc(C#N)cc1)C(=O)Nc1ccc(C#N)c(C(F)(F)F)c1 [Formula IX, (S)—N-(4-Cyano-3-(trifluoromethyl)phenyl)-3-(4-cyanophenoxy)-2-hydroxy-2-methylpropanamide]	Neither Formula IX nor enzalutamide altered the growth trajectory	modest activity	inhibited the expression	inhibited the phosphorylation	increased the phosphorylation		
C[C@](O)(COc1ccc(C#N)cc1)C(=O)Nc1ccc(C#N)c(Cl)c1 [Formula VIII, (S)—N-(3-chloro-4-cyanophenyl)-3-(4-cyanophenoxy)-2-hydroxy-2-methylpropanamide]						failed to alter	failed to activate
